In PMC12431657, “Discovery and mechanistic insights of dibenzoylmethane as a broad spectrum inhibitor of coronavirus” (PLOS Pathogens, 2025):
pEC50: −log10 of the molar value. “And” between values parts separate entries of the source, which are not always exact repeats. Equal entries are not always repeated. Structures can show the parent of a compound that is named as a salt.

Experiments:
[1] = tested on: HCoV-OC43; assay: microbe, parasite or virus in culture; assay type: cell-based; settings: for inhibition at 10 µM: Betacoronavirus 1, OC43, 24 h, read-out: OC43 Inhibition rate
[2] = tested on: HCoV-OC43; assay: Time-of-addition assay; assay type: cell-based
Protocol: To obtain further insight into the stage at which DBM inhibits the replication of HCoV-OC43 and other HCoVs, RD cells were incubated with compounds, including DBM, remdesivir (RDV), and chloroquine (CQ), at different stages of viral infection. Viral RNA from the supernatant was extracted and quantitatively analysed via qRT-PCR. […] For the viral binding assay, cells were cultured in the presence or absence of DBM at different concentrations for 1 hour before being infected with HCoV-OC43 at an MOI of 50, and then were placed on ice for 2 hours for the viral particles to bind to the membrane of the host cells, followed by washing with PBS. […] In addition to binding to receptors from host cells, the spike proteins of HCoV-OC43 could also trigger membrane fusion when HCoV-OC43 spike plasmid-transfected 293T cells were seeded together with RD cells as target cells, and the addition of DBM had no effect on this process (S5C Fig). To examine whether DBM inhibits viral internalisation, cells were inoculated with HCoV-OC43 for 1 hour on ice before being treated with either DBM or DMSO, and CQ was included to prevent endosomal acidification. Subsequently, HCoV-OC43 nucleocapsid proteins were immunostained with CoraLite Plus 488 to assess viral internalisation via confocal microscopy. […] To determine whether DBM influences viral release, we quantified viral RNA both intracellularly and in the supernatant.
To evaluate the effects of DBM on the life cycle of HCoV-229E and HCoV-OC43, fresh culture medium containing 0.6 μM DBM, 0.1 μM remdesivir (RDV), or 10 μM chloroquine (CQ) was supplemented with preseeded cells at different time points relative to infection (entry group: 0 to –2 hours; postinfection group: 2–12 hours; and full-time group: 0 to –12 hours). DMSO served as the control. At 24 hours postinfection, the number of intracellular virus RNA copies was quantified by qRT-PCR as previously described.

[3] = tested on: HCoV-OC43; settings: Ingenol 3,20-dibenzoate 10 mpk oral QD; day 2; one value per mouse
[4] = tested on: HCoV-229E; assay: Antiviral activity in vitro, qRT-PCR, HCoV-229E in MRC-5 cells; assay type: cell-based
[5] = tested on: HCoV-OC43; assay: Antiviral activity in vitro, qRT-PCR, HCoV-OC43 in RD cells; assay type: cell-based; parameters: EC50 (OC43, RD): dose-response value per replicate: concentration or dose not given beside the values
[6] = tested on: HCoV-229E; assay: Antiviral activity in vitro, viral RNA copies by qRT-PCR, HCoV-229E in Huh-7 cells; assay type: cell-based; parameters: EC50 (229E, Huh-7): dose-response value per replicate: scale not given here
[7] = tested on: HCoV-OC43; assay: Antiviral activity in vitro, qRT-PCR, HCoV-OC43 in Huh-7 cells; assay type: cell-based; settings: Betacoronavirus 1, OC43, Huh-7, 24 h, read-out: EC50 HCoV-OC43 (Huh-7)
[8] = tested on: HCoV-229E; assay: HTS luminescent cell viability assay, HCoV-229E infection; assay type: cell-based; settings: for inhibition at 10 µM: Human coronavirus 229E, 24 h, read-out: 229E Inhibition rate
[9] = tested on: Huh-7 cells; assay: Cytotoxicity assay (CCK-8), Huh-7 cells
[10] = tested on: RD cells; assay type: cell-based
[11] = tested on: HCoV-OC43; assay: HCoV-OC43 replication in siRNA-transfected cells; assay type: cell-based; settings: replicates
[12] = compound 10 μM, 24 h postinfection

CC[C@@]1(O)C(=O)OCc2c1cc1n(c2=O)Cc2cc3c(N)cccc3nc2-1 [9-amino-CPT]
OC43 Inhibition rate [1, 12]: -9.5%

CCN(CC)CCCC(C)Nc1ccnc2cc(Cl)ccc12 (centres unmarked) [CQ]
time-of-addition, viral inhibition [2]: 99.3

CC1=C[C@]23C(=O)[C@@H](C=C(COC(=O)c4ccccc4)[C@@H](O)[C@]2(O)[C@H]1OC(=O)c1ccccc1)[C@H]1[C@@H](C[C@H]3C)C1(C)C [Ingenol 3,20-dibenzoate, ingenol 3,20-dibenzoate]
Body weight changes [3]: DIED | HCoV-229E, MRC-5: inhibition at the concentration (Fig2B) [4]: 90.2 | pEC50 ([4]; Human coronavirus 229E, MRC5, 24 h, read-out: EC50 HCoV-229E (MRC-5)): 7.00 | pEC50 ([5]; Betacoronavirus 1, OC43, RD, 24 h, read-out: EC50 HCoV-OC43 (RD)): > 7.10 | pEC50 ([6]; Human coronavirus 229E, Huh-7, 24 h, read-out: EC50 HCoV-229E (Huh-7)): > 7.10 | pEC50 [7]: > 7.10

CO[C@@H]1C[C@@H](C[C@H]2CC[C@H](C)[C@H]([C@@H](C)C(=O)O)O2)O[C@]2(O[C@](C)([C@H]3CC[C@@](C)([C@@H]4O[C@@H]([C@H]5O[C@@](O)(CO)[C@H](C)C[C@@H]5C)C[C@@H]4C)O3)C[C@H]2C)[C@@H]1C [Nigericin (sodium salt)]
229E Inhibition rate ([8]; 10 µM): 0.0% | OC43 Inhibition rate ([1]; 10 µM): 8.7%

O=C(O)c1cc(C(=O)O)c2c(n1)C(=O)C(=O)c1cc(C(=O)O)[nH]c1-2 [Pyrroloquinoline quinone (disodium salt)]
229E Inhibition rate [8, 12]: 4.0% | OC43 Inhibition rate [1, 12]: -0.3%

O=C(O)c1cc(C(=O)O)c2c(n1)C(=O)C(=O)c1cc(C(=O)O)[nH]c1-2 [Pyrroloquinoline quinone]
inhibition at 10 µM [8]: 4.2% | inhibition at 10 µM [1]: -0.2%

Nc1ncnc2c1ccn2[C@@H]1O[C@H](CO)[C@@H](O)[C@H]1O [Tubercidin]
inhibition at 10 µM [8]: 12.9% | inhibition at 10 µM [1]: 1.9%

C[C@@H]1[C@H](O)[C@@H](C)/C=C/C=C/C=C/C=C/C=C/C=C/C=C/[C@H](O[C@@H]2O[C@H](C)[C@@H](O)[C@H](N)[C@@H]2O)C[C@@H]2O[C@](O)(C[C@@H](O)C[C@@H](O)[C@H](O)CC[C@@H](O)C[C@@H](O)CC(=O)O[C@H]1C)C[C@H](O)[C@H]2C(=O)O [amphotericin B, reference compound]
selectivity index (SI) [9]: below 25

COc1ccc(-c2oc3c(CC=C(C)C)c(O)cc(O)c3c(=O)c2O[C@@H]2O[C@@H](C)[C@H](O)[C@@H](O)[C@H]2O)cc1 [baohuoside I]
selectivity index (SI) [9]: below 25

CN[C@@H](C)[C@H]1[C@H](O)C[C@@]2(C)[C@@H]3CC[C@H]4C(C)(C)[C@@H](NC)CC[C@@]45C[C@@]35CC[C@]12C [cyclovirobuxine D]
EC50 (OC43, RD): dose-response value per replicate [5]: 99.7 (3×) and 96.3 and 96.5 and 96.2 and 73.1 and 73 (2×) and 5.5 and 61.2 and 59.8 and 79.4 and 78.3 and 79.9 and 42.6 and 41.4 and 42 | selectivity index (SI) [9]: below 25 | EC50 (229E, Huh-7): dose-response value per replicate [6]: 87.1 and 91.6 and 92.1 and 83.4 and 77.4 and 88.7 and 0.1 (10×) and 27 and 13.3

COC(=O)[C@H]1[C@H]2C[C@@H]3c4[nH]c5ccccc5c4CCN3C[C@H]2C[C@@H](OC(=O)c2cc(OC)c(OC)c(OC)c2)[C@@H]1OC [deserpidine, reference compound]
selectivity index (SI) [9]: below 25

CC(=O)OC/C1=C\[C@H]2[C@@H](OC(=O)/C=C/c3ccccc3)[C@@H](C)C[C@]2(OC(C)=O)C(=O)/C(C)=C/[C@@H]2[C@H](CC1)C2(C)C [euphorbia factor L7a]
selectivity index (SI) [9]: below 25

C=C1C(=O)[C@@]23[C@@H]4OC5O[C@@]2(O)[C@@H](O)[C@@H]2C(C)(C)CC[C@@H](O)[C@]52[C@@H]3CC[C@@H]14 [ponicidin]
selectivity index (SI) [9]: below 25

C=C(C)[C@H](CC=C(C)C)Cc1c(O)cc(O)c2c1O[C@H](c1ccc(O)cc1O)CC2=O [sophoraflavanone G]
selectivity index (SI) [9]: below 25

ALG11-2 (sense GGUGCCUGUGCAAGUUGUUTT; antisense AACAACUUGCACAGGCACCTT; chemistry not given here)
Relative mRNA content of the targeted gene after siRNA knockdown (Fig5D) [10]: 0.16 and 0.22 and 0.13

CASP3-1 (sense CCGACAAGCUUGAAUUUAUTT; antisense AUAAAUUCAAGCUUGUCGGTT; chemistry not given here)
HCoV-OC43 replication in siRNA-transfected cells, inhibition [11]: -3.8 and -7.6 and -9.9 and 15.1 and 8.0 and 7.0

CASP3-2 (sense CCCUGGACAACAGUUAUAATT; antisense UUAUAACUGUUGUCCAGGGTT; chemistry not given here)
HCoV-OC43 replication in siRNA-transfected cells, inhibition [11]: 3.7 and -8.9 and -0.3 and 15.3 and 18.4 and 14.9 | Relative mRNA content following siRNA knockdown [10]: 0.000229 and 0.000196 and 0.000194 and 0.000282 and 0.000327 and 0.000307

CASP7-1 (sense GUGCCAAGAUGCAAGAUCUTT; antisense AGAUCUUGCAUCUUGGCACTT; chemistry not given here)
HCoV-OC43 replication in siRNA-transfected cells, inhibition [11]: -1.2 and -4.0 and -5.1 and 6.9 and -3.2 and 8.5 | Relative mRNA content following siRNA knockdown [10]: 0.04453 and 0.02767 and 0.03038 and 0.03195 and 0.02491 and 0.0301

CASP7-2 (sense GAGGAUUCAGCAAAUGAAGTT; antisense CUUCAUUUGCUGAAUCCUCTT; chemistry not given here)
HCoV-OC43 replication in siRNA-transfected cells, inhibition [11]: -52.2 and -54.8 and -44.2 and 4.9 and 14.1 | Relative mRNA content following siRNA knockdown [10]: 0.04124 and 0.03671 and 0.03839 and 0.05589 and 0.05554 and 0.05883

CYP1A1-2 (sense GGGUUUGACACAGUCACAATT; antisense UUGUGACUGUGUCAAACCCTT; chemistry not given here)
Relative mRNA content of the targeted gene after siRNA knockdown (Fig5D) [10]: 0.00

ELAC2-2 (sense GCAGAGGGAUGCCAUUAUUTT; antisense AAUAAUGGCAUCCCUCUGCTT; chemistry not given here)
Relative mRNA content of the targeted gene after siRNA knockdown (Fig5D) [10]: 0.20 and 0.16 and 0.32

IDH3G-1 (sense GCAAGAGUAUCGCCAAUAATT; antisense UUAUUGGCGAUACUCUUGCTT; chemistry not given here)
Relative mRNA content of the targeted gene after siRNA knockdown (Fig5D) [10]: 0.00

IDH3G-2 (sense GCACGUGAGUUCCAAUGCUTT; antisense AGCAUUGGAACUCACGUGCTT; chemistry not given here)
Relative mRNA content of the targeted gene after siRNA knockdown (Fig5D) [10]: 0.00

UBP1-1 (sense GCACCCACCCUUUCAGUAUTT; antisense AUACUGAAAGGGUGGGUGCTT; chemistry not given here)
Relative mRNA content of the targeted gene after siRNA knockdown (Fig5D) [10]: 0.42 and 0.21 and 0.33
